Experimental data taken from patent publication EP0726072A2, “Composition for the treatment of hypertension and congestive heart failure, containing an angiotensin II antagonist and an endopeptidase inhibitor” (BRISTOL-MYERS SQUIBB COMPANY, priority 1995, dated 1996).

Tested on: cardiomyopathic hamsters
Assay: Cardiovascular effects in conscious cardiomyopathic hamsters with compensated heart failure
Type: in vivo, hamsters of the BIO TO-2 strain
Details: for left ventricular end diastolic pressure, effect in words / left ventricular systolic pressure, effect in words: summary of the discussion, up to 90 minutes after last treatment
Procedure: The studies described in this experiment were conducted in male hamsters of the BIO TO-2 strain when they were approximately 260 days of age and weighed on average 115 g. These animals develop a genetic form of cardiomyopathy that progresses uniformly among animals through different stages of heart failure. By 240 - 300 days of age the cardiomyopathic hamsters are characterized (as compared with control hamsters) by low mean arterial pressure, a 40% reduction in cardiac output and a decrease in renal blood flow. They display elevated cardiac filling pressure, depressed ventricular function, increased peripheral vascular resistance and have an 8-10-fold increase in plasma atrial natriuretic peptide concentration.
The experiments were conducted in conscious, unrestrained, cardiomyphathic hamsters three hours after placement of cardivascular catheters using brief anesthesia. The catheters allowed measurement of mean arterial pressure, left ventricular end diastolic pressure, left ventricular systolic pressure and heart rate, and provided a means for the administration of agents intravenously.
In this series of experiments baseline measurements of left ventricular end diastolic pressure, left ventricular systolic pressure and heart rate were determined in groups of conscious cardiomyopathic hamsters. Compounds or vehicle were administered intravenously, and measurements were repeated at 30-minute intervals up to 90 minutes after administration of the last agent. BMS 186295 was administered at 30 µmol/kg, i.v. (0.3 ml) followed by a continuous i.v. infusion at 1 µmol/kg per min (0.01 ml/min). BMS 186295 was prepared in 0.028 M potassium hydroxide and diluted to a final concentration of 0.17 M potassium hydroxide. Potassium hydroxide solution (0.17 M) was administered intravenously to the vehicle group at 0.3 ml followed by a continuous infusion at 0.01 ml/min. SQ 28603 was dissolved in 0.84% sodium bicarbonate and administered at 30 µmol/kg, i.v. This dose of SQ 28603 was previously shown to result in a doubling of plasma atrial natriuretic peptide concentration within 90 minutes in this model. One group of cardiomyopathic hamsters received the combination of BMS 186295 and SQ 28603. In this group BMS 186295 was administered according to the same dosage regimen described above; 30 minutes after the bolus injection of BMS 186295, SQ 28603 was administered at 30 µmol/kg, i.v.
Differences in age, body weight and baseline values among groups were evaluated by analysis of variance. Differences in changes from baseline among groups were evaluated by analysis of covariance with repeated measures and contrasts. The baseline value for each variable was used as the covariate. The level of significance was taken at P < 0.05. All data are expressed as mean ± standard error of the mean.

[1] = 30′, BMS 186295 30 µmol/kg i.v. + 1 µmol/kg per min, SQ 28603 30 µmol/kg i.v.
[2] = 60′, BMS 186295 30 µmol/kg i.v. + 1 µmol/kg per min, SQ 28603 30 µmol/kg i.v.
[3] = 90′, BMS 186295 30 µmol/kg i.v. + 1 µmol/kg per min, SQ 28603 30 µmol/kg i.v.
[4] = 30 minutes after last treatment, BMS 186295 30 µmol/kg i.v. + 1 µmol/kg per min, SQ 28603 30 µmol/kg i.v.
[5] = 60 minutes after last treatment, BMS 186295 30 µmol/kg i.v. + 1 µmol/kg per min, SQ 28603 30 µmol/kg i.v.
[6] = 90 minutes after last treatment, BMS 186295 30 µmol/kg i.v. + 1 µmol/kg per min, SQ 28603 30 µmol/kg i.v.
[7] = table line headed 'BMS 186295 SQ 28603', between Baseline and 30′ (time of treatment)

SMILES | Heart Rate [1] | Left Ventricular End Diastolic Pressure [1] | Left Ventricular Systolic Pressure [1] | Heart Rate [2] | Left Ventricular End Diastolic Pressure [2] | Left Ventricular Systolic Pressure [2] | Heart Rate [3] | Left Ventricular End Diastolic Pressure [3] | Left Ventricular Systolic Pressure [3] | Left Ventricular End Diastolic Pressure, Change From Baseline [4] | Left Ventricular Systolic Pressure, Change From Baseline [4] | Left Ventricular End Diastolic Pressure, Change From Baseline [5] | Left Ventricular Systolic Pressure, Change From Baseline [5] | Left Ventricular End Diastolic Pressure, Change From Baseline [6] | Left Ventricular Systolic Pressure, Change From Baseline [6] | Heart Rate (Baseline, before treatment) | Left Ventricular End Diastolic Pressure (Baseline, before treatment) | Left Ventricular Systolic Pressure (Baseline, before treatment) | left ventricular end diastolic pressure, effect in words | left ventricular systolic pressure, effect in words | further results
CCCCC1=NC2(CCCC2)C(=O)N1Cc1ccc(-c2ccccc2-c2nnn[nH]2)cc1 [BMS 186295, 2-butyl-6,7,8,9-tetrahydro-3-[[2'-(1H-tetrazol-5-yl)[1,1'-biphenyl]-4-yl]-methyl]-1,3-diazaspiro[4.4]nonan-4-one] | 363 ± 20 beats/min | 16 ± 2 mm Hg | 114 ± 2 mm Hg | 367 ± 18 beats/min | 16 ± 2 mm Hg | 111 ± 2 mm Hg | 369 ± 28 beats/min | 18 ± 3 mm Hg | 112 ± 5 mm Hg | -1 ± 1 mm Hg | 2 ± 2 mm Hg | -1 ± 1 mm Hg | -1 ± 2 mm Hg | 1 ± 2 mm Hg | 1 ± 5 mm Hg | 338 ± 16 beats/min | 17 ± 2 mm Hg | 112 ± 2 mm Hg | no significant effects | no significant effects | Heart Rate [7]: 364 ± 14 beats/min; Left Ventricular End Diastolic Pressure [7]: 18 ± 2 mm Hg; Left Ventricular Systolic Pressure [7]: 111 ± 1 mm Hg
O=C(O)CCNC(=O)C(CS)Cc1ccccc1 (racemic) [SQ 28603, (±)-N-[2-(mercaptomethyl)-1-oxo-3-phenylpropyl]-β-alanine] | 381 ± 9 beats/min | 14 ± 2 mm Hg | 109 ± 5 mm Hg | 366 ± 9 beats/min | 17 ± 3 mm Hg | 105 ± 4 mm Hg | 378 ± 8 beats/min | 16 ± 3 mm Hg | 105 ± 5 mm Hg | 4 ± 1 mm Hg | -8 ± 1 mm Hg | -1 ± 2 mm Hg | -12 ± 3 mm Hg | -2 ± 1 mm Hg | -12 ± 2 mm Hg | 378 ± 12 beats/min | 18 ± 3 mm Hg | 117 ± 5 mm Hg | smaller decreases | smaller decreases | Heart Rate, Change From Baseline [4]: 3 ± 8 mm Hg; Heart Rate, Change From Baseline [5]: -13 ± 12 mm Hg; Heart Rate, Change From Baseline [6]: -1 ± 9 mm Hg; Heart Rate [7]: 380 ± 7 beats/min; Left Ventricular End Diastolic Pressure [7]: 14 ± 3 mm Hg; Left Ventricular Systolic Pressure [7]: 108 ± 5 mm Hg
